Results published in patent US6602852B1, “Basic peptides and pharmaceutical compositions containing same” (NST NeuroSurvival Technologies, Ltd., priority 1998, dated 2003).

Assays:
[1] = tested on: clotting induced by negatively charged phospholipids in normal plasma; conditions: 0.5-50 μM; control clotting time 40 seconds
Description: The ability of NST300 compounds to inhibit coagulaton catalyzed by negatively—charged phospholipids was evaluated in a standard coagulation test of the Russell viper venom (RVV) assay. The RVV reagent directly activates factor x present in the plasma, thus promoting prothrombinase complex formation. This reagent is widely used as a standard phospholipid responsive clotting test. (Thiagarajan et al., Blood, 1986; 869-874).
The RVV reagent kit, containing RVV and negatively charged phospholipids, from Gradipore, Australia was used. The reactions were started by mixing 100 μl of RVV reagent, and 100 μl of quality control plasma collected from normal individuals (commercially available from Instrumentation Laboratory, Italy). Clotting time was determined as the time-point beyond which the continuously mixed reaction ingredients in the test tube, could no longer be aspirated with a pasteur pipette. Clotting time was measured independently by two separate researchers.

Cardiolipin (CL) = tested on: Cardiolipin (CL)
Description: As control, wells were coated with ethanol only. The coated plates were washed 3 times with 100 ul of blocking buffer (PBS containing 0.3% gelatin (Sigma) and 1 mM EDTA) to block non specific binding. A 5 min incubation time was used between each wash. Normal plasma (Ilex, Italy, 84670-11) and Lupus plasma (either from Gradipore, Australia, LAHP-1, or from Biopool, Ventura, Calif.) were prepared according to the producer instruction. The plasma was diluted 1/10 in the blocking buffer and was added to the CL and ethanol coated wells. Binding of different NST 300 compounds to CL was performed by addition of serial dilutions of NST compounds (prepared in the plasma/blocking buffer solution) to the CL or ethanol coated wells. Following 3 hr incubation, the plates were washed twice with PBS/BSA buffer (0.4% bovine serum albumin (BSA) in PBS). For detection of anticardiolipin binding property of the tested plasma, the plates were incubated with a 1/10000 dilution of Peroxidase-conjugated affinity purified Goat anti-human IgG (Jackson Immunoresearch lab.) in PBS/BSA buffer for 1 hour. The plates were then washed 3 times with PBS/BSA buffer, and color reaction was developed by incubation with 100 ul of 0-phenylenediamine (OPD) dihydrochloride (Sigma p-7288) at a concentration of 0.4 mg/ml in 0.05 M phosphate citrate buffer, pH 5.0 supplemented, with 4 ul of 30% hydrogen peroxide (Aldrich) for 10 ml mixture. To detect the level of NST 300 compound that was bound to CL, parallel wells were incubated with streptavidin conugated to OPD (SA-OPD, Jackson Immunoresearch lab.), that specifically recognize the biotinylated NST 300 compound. The resulting colour changes were recorded at […] using a Bio Tek Elx800 Eliza reader.

apoptotic hepatocytes = type: in vivo
Description: All animals were killed 2 hr after administration of antibody followed by organ removal. Heart, lung and liver were collected.
Formalin fixed paraffin-embedded tissues were sectioned (5 μm) for staining with Hematoxylin/Eosin or other techniques.
Endogenous peroxidase activity was blocked by incubation with 3% H2O2.
After washing with PBS, staining was developed with 3,3-diaminobenzidine tetrahydrochloride (DAB), and counterstained with Hematoxylin.
Liver sections from different lobes were used for detection of stained apoptotic cells compared to normal cells.
The percentage of apoptotic cells in the fields was estimated by evaluating parallel sections stained with Hematoxylin/Eosin. Analysis was performed blindly, since the pathologist performing the histological evaluation was unaware of the assignment of mice to the treatment or control group.

[2] = tested on: Cardiolipin (CL) / anti β2GPI
Description: Antiphospholipid antibodies (APLA) comprise a family of antibodies characterized by their reactivity with negatively charged phospholipids in vitro. The target or many anti-phospholipid antibodies is either a complex between anionic phospholipid and the plasma protein Apolipoprotein-H (β2GPI) or the protein β2GPI alone bound to PS (McNeil et al., 1990, Matsurra et al., 1994). […] The assay was performed as essentially described above for anti CL ELISA with several modifications. […] Following washes, the wells were incubated for 1 hour with 1/10000 of Peroxidase-conjugated affinity purified rabbit anti goat IgG (Jackson Immunoresearch lab. PA) in PBS/BSA buffer. Washes and development were as described for anti CL ELISA. In the following experiments, CL coated wells were incubated with 1/500 dilution or affinity purified goat anti-human β2GPI in 10% normal plasma (as a source for β2GPI protein and buffering condition).

[3] = tested on: HeLa cells undergoing dopamine-induced apoptosis; conditions: 750 nM
Description: HeLa cells were plated on tissue culture plates at a density of 3×10^6 cells/10 cm dish, and grown in a DMEM medium containing 10% FCS, as described in A. The cells were then incubated at 37° C. overnight, and then the medium was replaced with a medium containing 2% FCS and 500 μM of dopamine. 18 hours later, the medium was aspirated and discarded, and 10 ml of Phosphate Buffered Saline pH 7.4 (PBS) were added to the culture dish. The cells which were detached from the culture dish into the PBS were collected. These cells represent advanced apoptotic cells. The remaining cells which were attached to the culture dish were trypsinized by the addition of 2 ml of trypsin for 2 minutes at 37° C., followed by the addition of 10 ml of a medium containing 10% of FCS. The cells were then washed with PBS containing 2% Bovine Serum Albumin (BSA), and resuspended in TBS containing 2% BSA (TBS-BSA). These cells were regarded as early apoptotic cells. […] Only non-treated cells that were attached to the culture dish were used as control cells for the FACS analysis.
A set of 3 different cell types was taken:
The incubation with the NST300 compounds or control compound was performed in a final volume of 100 μl TBS-BSA, 5 μg/ml of propidium iodide (PI) and 750 nM of the tested compound or the control compound.
PI is a red fluorescent dye that stains DNA. […] Only cells that are in advanced apoptotic stages, or cells that have already died by apoptosis or necrosis will be permeable to PI and will be stained with the dye. […] The cells were then washed in 500 μl of cold TBS-BSA and centrifugated as before. The cells were then suspended in 100 μl of TBS-BSA containing streptavidin conjugated to fluorescein (FITC). […] Thereafter, the cells were washed three times in TBS-BSA and were taken for FACS analysis.
The FACS analysis was performed on a Beckton-Dickinson cell sorter, using lysis II software. Excitation was at 488 nm and the emission or FITC detection was at 535 nm and for PI detection at 585 nm.

Myristate-KKKKKRFSFKKSFKLSGFSFKKNKKK (SEQUENCE ID NO. 2)-(biotin) [NST302]
increase of clotting time by a factor as compared to control [1]: 3.1 | concentration at which binding to CL reached saturation (Cardiolipin (CL); CL coated ELISA wells): about 0.3 μM | concentration from which displacement of Lupus plasma binding to CL starts (Cardiolipin (CL); Lupus plasma from Gradipore): 0.1 µM | concentration of maximum effect of displacement of Lupus plasma from CL (Cardiolipin (CL); Lupus plasma from Gradipore): 2.5 µM | staining in normal hepatocytes (apoptotic hepatocytes; animals injected with NST302 only): never observed | staining of liver in anti-Fas treated mice (apoptotic hepatocytes; intravenous, 5 μM, avidin biotin peroxidase detection): observed at cytoplasma and cytoplasmatic border of apoptotic hepatocytes | concentration of complete inhibition of anti β2GPI binding to CL ([2]; 10% normal plasma): 50 µM | concentrations giving significant displacement of anti β2GPI from CL ([2]; 10% normal plasma): 0.1 to 50 µM | inhibition of anti β2GPI binding to CL ([2]; FIG. 6c): Complete inhibition | binding intensity (FITC mean value) compared with NST301 ([3]; apoptotic cells): higher binding intensity | binding intensity: ratio of FITC mean value of apoptotic cells to that of control cells ([3]; early apoptotic cells, FIG. 3b): 9 fold
